Assay results: a melting point compilation (Tetko et al.; mined from patent text by program, amines drawn as free bases though some values may be those of a salt)

melting point [°C] | Structure (SMILES)
88 to 90 | CC(=O)Cc1ccc(Oc2ccc(C(F)(F)F)cc2)cc1
128 to 131 | COc1cc(OC)nc(Nc2ncccc2C(=O)OCc2ccccc2)n1
76 to 78 | O=C(CCN1CCN(c2cccc3[nH]ccc23)CC1)c1csc2ccc(F)cc12
250 to 254 | O=C(O)c1cccc(C(=O)O)c1S(=O)(=O)Nc1ccc(F)cc1C(F)(F)F
90 to 94 | COCCn1nnnc1-c1cc(-c2cc(C(F)(F)F)ccc2F)c(O)cc1O
149 to 151 | COC1CCN(Cc2ccc(COc3cccc4c3CN(C3CCC(=O)NC3=O)C4=O)cc2)CC1 (stereo unspecified)
107 to 108 | CCOC(=O)C1SC(c2ccc3ccccc3c2)=NN1C(=O)CCSC(C)=O (stereo unspecified)
160 to 162 | CC(C)CCS(=O)(=O)NC(=O)CCc1cc(C2CC2)nn1Cc1ccc(C(F)(F)F)cc1Cl
80 to 100 | CCOC(=O)C(Cc1cccc2cccnc12)(NC(=O)CC)C(=O)OCC
205 to 210 | CC(C)=NN=C(N)Nc1c(Cl)cccc1Cl
249 to 252 | CS(=O)(=O)c1ccc(-c2nc(C(F)(F)F)[nH]c2-c2ccc(F)c(F)c2)cc1
126 to 127 | CCC1C(=O)N(CC)CCc2cc(Nc3ncc(Cl)c(N[C@@H]4CCCC[C@H]4NS(C)(=O)=O)n3)c(OC)cc21 (stereo partly specified)
217 to 219 | COC(=O)C1=C(C)NC(=O)N(C)C1c1cccc([N+](=O)[O-])c1 (stereo unspecified)
140 to 145 | CC(=O)Oc1ccc(C(=O)CN(CCNC(=O)Cc2ccccc2)Cc2ccccc2)cc1OC(C)=O
107 to 109 | C=C(C)n1c(=O)n(CCN(C)Cc2ccccc2)c2ccccc21
120 | C=C(C)COc1ccc(Br)cc1CN(CC)c1ccc(C(=O)NS(=O)(=O)c2c(C)noc2C)nn1
150 to 155 | CC(C)(CC(O)(Cn1ccc(=O)c2ccccc21)C(F)(F)F)c1cc(F)ccc1OC(F)F (stereo unspecified)
174 to 178 | CC(=O)NNc1ccnc2c(NC(=O)c3c(Cl)cccc3Cl)cc(C(F)(F)F)cc12
185 to 187 | CC(C)(C)[C@H]1CC[C@H](N(Cc2ccc(C(=O)NC[C@H](O)C(=O)O)cc2)C(=O)Nc2cc(C(F)(F)F)cc(C(F)(F)F)c2)CC1
280 | Cc1ccc(-c2coc3cc(O)c(O)cc3c2=O)cc1

melting point [°C] | Structure (SMILES)
82 to 84 | Clc1ccc(Oc2ccccc2Oc2ccc(Cl)cn2)nc1
225 | Cc1ccc(-c2coc3c(O)c(O)ccc3c2=O)cc1
151 to 152 | CC1=C(C(=O)O)C(c2cccc([N+](=O)[O-])c2)C(C(=O)OCCNC(=O)c2cccnc2)=C(C)N1 (stereo unspecified)
110 to 112 | COC(=O)c1ccccc1-c1n[nH]c(-c2cccc(C(F)(F)F)c2)n1
193 to 194 | Cc1c(Cc2ccc(C(C)C)cc2)c2c(c(C)c1NC(=O)CC(C)(C)C)C(=O)C(C)(C)O2
161 | Cc1nc(C(F)(F)F)ccc1C(=O)Nc1ccccc1
200 to 203 | CONC(=O)c1cc2c(Sc3ccc(C)cc3)cncc2s1
210 to 212 | CS(=O)(=O)c1cccc(NC(=O)c2ccccc2O)c1
96 to 97 | COC(=O)c1cncc(OCc2cccc(OCc3nc(-c4ccccc4)oc3C)c2)c1
157 | CN(C)C(=O)c1cccc(C(=O)Nc2cccc3cc(Br)cnc23)c1
228 to 230 | CN1CCC(c2c(O)cc(O)c3c(=O)cc(-c4ccccc4Cl)oc23)C1CO (stereo unspecified)
176 to 177 | CC(C)(Sc1ccc2c(-c3ccc(Cl)cc3)noc2c1)C(=O)O
230 to 232 | N#Cc1cn(-c2ccc(C(F)(F)F)cc2)c(=O)[nH]c1=O
167 to 168 | COc1cc(COc2nn(Cc3ccccc3)cc2C(=O)O)ccc1OCc1nc(-c2ccco2)oc1C
270 to 272 | CC1(C)CCC(C)(C)c2cc(-c3cc(-c4ccc(C(=O)O)cc4)ccc3OCCN3CCOCC3)ccc21
202 to 205 | Cc1cccc(-c2ccc(=O)[nH]n2)c1
69.5 to 70.5 | CCc1coc2cc(OCc3ccccc3)ccc12
221 to 223 | CN(C)S(=O)(=O)c1cn(C)c2cc(C(F)(F)F)ccc2c1=O
158 to 162 | O=C1c2c(Cl)cccc2S(=O)(=O)N1Cn1nnn(-c2ccccc2)c1=S
185 to 187 | COc1ccc(-c2ccc3ccc(NC(=O)c4ccccc4)nc3n2)cc1

melting point [°C] | Structure (SMILES)
166 to 168 | COc1ccc(NC(=N)c2ccc(SC)cc2)cc1
107 to 109 | CCCCc1nc(CO)c(C(=O)ON2C(=O)CCC2=O)n1Cc1ccc(-c2ccccc2C(=O)OC(C)(C)C)cc1
154 to 155 | O=C(C=Cc1cnc2ccccc2c1)NCCCSc1ccncc1
110 to 120 | CS(=O)(=O)c1ccc([C@@H](CC2CCCC2)C(=O)Nc2cnc(C(CO)CO)cn2)cc1Cl
88 to 90 | CC(C)C[C@H](NC(=O)COc1ccc(Cl)cc1)C(=O)N[C@@H](C(C)C)[C@@H](O)c1c(-c2ccccc2)c1=O
> 250 | CCOC(=O)c1nc2c(=O)[nH]c3cc(C(F)(F)F)ccc3n2c1CNCc1ccccc1
264 to 267 | Oc1ccc(-c2nc3cc(O)ccc3o2)cc1
204 to 206 | Cn1cc(CO)c(=O)c2ccc(Cl)cc21
116 to 119 | CC(C)(C)OC(=O)N[C@H](Cc1ccc(Cl)c(Cl)c1)C(=O)N1CCC[C@H]1C(=O)NC1CCc2nc(N)sc2C1 (stereo partly specified)
205 to 207 | O=C1CCC(N2C(=O)c3ccc(CNC(=O)c4ccc5ccccc5n4)cc3C2=O)C(=O)N1 (stereo unspecified)
156 to 157 | O=c1ccn(-c2cccc(C(F)(F)F)c2)nc1-c1ccnn1Cc1ccccc1
316 to 317 | CNc1nc(N)nc2cc(-c3ccccc3S(=O)(=O)NC)ccc12
141 to 143 | N#Cc1ccc2[nH]c3c(c2c1)CC(NC(=O)OCc1ccccc1)CC3 (stereo unspecified)
172 | COCCNC(=O)COC1c2ccccc2C(=O)N1c1ccc2ccc(OC)nc2n1 (stereo unspecified)
270 to 273 | CCOC(=O)c1ccc2c(c1)C(=O)c1nc3ccccc3c(=O)n1-2
124 to 125 | O=C(NCCCS(=O)(=O)c1ccncc1)c1cccs1
184 to 187 | Cc1c(Cl)cc(C2=NNC(=O)C(S)C2)cc1Cl (stereo unspecified)
221 to 222 | COc1ccc(CNc2nnc(-n3ccnc3)c3ccc(Cl)cc23)cc1Cl

The remaining lines, values behind:

Structure (SMILES) | melting point [°C]
CCOC(=O)Cc1cnc(C(C)(C)C)nc1O | 98 to 102
CN(C)C1(c2ccccc2)CCC(=CC(=O)N2CCC(c3c[nH]c4ccc(Cl)cc34)CC2)CC1 (stereo unspecified) | 115 to 119
N#CC(C#N)=C1CC(=C(C#N)C#N)c2ccccc21 | 224 to 228
N=C(N)Nc1nc(CCCCC(N)=NO)cs1 | 167 to 168
CC(C)N(C)S(=O)(=O)NC(=O)c1ccc(F)c([N+](=O)[O-])c1 | 164 to 165
Cc1oc2cc(CCl)ccc2c1C | 63 to 65
N[C@@H](C1CCCCC1)C(O)(Cc1ccccc1)Cc1ccccc1 | 80 to 81
Cc1nc(C=O)cn1Cc1ccccc1 | 57 to 60
CCn1c(=O)c2nc(C=O)cn2c2ccccc21 | 302 to 306
CCCCc1cn(-c2ccccc2CC)c(=O)n1Cc1ccc(-c2ccccc2-c2nnn[nH]2)cc1 | 188 to 189
S=c1[nH]ccn1CCc1cccs1 | 131 to 134
CCCOc1ccc(S(=O)(=O)N2CCNCC2)cc1-c1cc2c(=O)n(C)c(=O)n(CCC)c2[nH]1 | 237
N#CC(=Cc1ccc(CBr)cc1)c1ccccc1 | 61
O=C1NC(CC(=O)C2CC2)c2cccn2-c2sccc21 (stereo unspecified) | 200
CC#CC1(O)CCC2C3CCC4=CC(=O)CCC4C3CCC21CCC (stereo unspecified) | 182 to 184
CC(C)(CO)CCCCC(O)CCCCC(C)(C)CO | 72 to 74
CCCCNC(=O)NS(=O)(=O)c1c(C(=O)OCC)c(Cl)nn1C | 109 to 111
CC(C)[C@@H](Cc1ccc(C(C)(C)C)cc1)C(=O)N1C(=O)OC[C@H]1Cc1ccccc1 | 124
c1ccc2c(c1)CC(Nc1ncnc3nc[nH]c13)C2 | 300
Cc1cc(C(=S)CN=[N+]=[N-])ccc1O | 124 to 129
CCc1nnc(C(CCN2CC3CCC2CC3)(c2ccccc2)c2ccccc2)o1 | 96 to 98.5
CCCCCCCCCCCCC#CCC(NC(C)=O)(C(=O)OCC)C(=O)OCC | 43 to 43.5

Structure (SMILES) | melting point [°C]
COc1ccc(C2(C#N)CCC(=O)CC2)cc1OC1CCCC1 | 111 to 112
CC(C)Cn1c(=O)n(C)c(=O)c2c(SCCCC#N)n(Cc3cccc4ccccc34)cc21 | 127 to 128
CCCCCCCCCCCCCCCCC[C@@H](O)C[C@H]1OC(=O)[C@@H]1CCC | 84 to 85
C=CC(CCc1ccccc1)NC(=O)OC(C)(C)C (stereo unspecified) | 53
CSc1nc(N)cc(OCCOCP(=O)(O)O)n1 | 210 to 211
CCCCCCCN1CCCc2cccc(O)c21 | 33 to 34
CC(=O)Nc1ccc(C#Cc2ccc(C3CC4CCCC(C3)N4C)nn2)cc1 (stereo unspecified) | 270 to 271
Nc1ccc2ccc(Oc3ccccc3Br)nc2n1 | 206
O=C(O)CSC(CCc1ccccc1)c1ccc(OCc2ccc3ccccc3n2)cc1 (stereo unspecified) | 117 to 118
Brc1cccc2[nH]cc(Sc3ccccc3)c12 | 137 to 139
CC(C)C(=O)NCC(C)(C)N | 134 to 138
COc1ccc(C2=NO[C@](CO)(CCO)C2)cc1OC1CCCC1 | 108 to 109
O=C1CC(=O)N(c2ccc(Cl)cc2)N1 | 189 to 193
CC1(C)C=C(C#Cc2ccccn2)CC(C)(C)C1 | 55 to 56
CCCCCCCCCCC(=O)C(=O)CCCCCCCCCC | 68.5 to 69
COc1cc(OC)c2c(C)c(C(C)=O)c(=O)oc2c1 | 166 to 167
CCCCCn1ncc(C#N)c1N | 143 to 144
CCOc1noc(-c2nc[nH]n2)c1C | 194 to 196
CCOC(=O)C1CCN(c2cc(C)nc3c2c(C)cn3-c2c(C)cc(Cl)cc2C)CC1 | 140 to 142
O=C(O)C=CC1=CCCC([N+](=O)[O-])C1 (stereo unspecified) | 158 to 160
OC1(c2ccc(Br)cc2)CCN(CCCc2noc3cc(F)ccc23)CC1 | 138 to 145
